In patent US20150376570A1, “METHODS AND COMPOSITIONS FOR PRODUCING INDUCED HEPATOCYTES” (GENENTECH, INC., priority 2012, published 2015):

Key:
BJ fibroblasts = experiment: Albumin and α-fetoprotein gene expression by qPCR in transfected fibroblasts; format: cell-based, human; conditions: Example 13, 5 consecutive days, 6-well plate
From the text: RPL19 (Hs02338565_gH) was used for endogenous control assays. The ViiA 7 Real Time PCR System (Applied Biosystems) was used to perform and analyze qPCRs. If gene expression was not detectable in a sample, an artificial cycle threshold of 41 was applied to allow for comparison.
Reprogramming experiments were generally performed as follows. Initial reprogramming experiments used mRNA pools containing six different mRNAs encoding the following six transcription factors: FOXA1, FOXA2, FOXA3, HNF4A, HNF1A, and GATA4. This six transcription factor pool containing mRNAs encoding FOXA1, FOXA2, FOXA3, HNF4A, HNF1A, and GATA4 is herein referred to as 6TF. The 6TF mRNA mixture used in these studies contained the mRNA molecules at a molar ratio of 1:1:1:1:1:1. […]
Albumin (ALB) and α-fetoprotein (AFP) are genes expressed almost exclusively in cells of hepatocyte lineage. […] After 5 days and 9 days, gene expression levels for albumin and α-fetoprotein in the cells were determined by qPCR using methods as described above.
BJ fibroblasts were transfected once daily with 6TF mRNA mixture (See Table 6 above for 6TF mRNA cocktail composition) or each of the 5TF mRNA mixtures (described above and shown in Table 6) for 5 consecutive days, as described above. After 5 days, gene expression levels for albumin and AFP in the cells were determined by qPCR using methods as described above. […]

TLR3 = TLR3 activation on 11TF transfection with or without Poly I:C; format: cell-based, human; conditions: daily transfection and/or daily Poly I:C supplementation
Procedure: (See Lee et al., (2012) Cell 151:547-558.) Experiments were performed to examine whether 11TF mRNA mixture could activate TLR3 and to determine whether further activation would increase hepatic induction.
Experiments were performed to test whether daily supplementation with Poly I:C, a known TLR3 agonist, accompanying 11TF mRNA mixture transfection would further increase expression of albumin and AFP.

| Substance | AFP gene expression vs non-transfected control fibroblasts (BJ fibroblasts) | albumin gene expression vs non-transfected control fibroblasts (BJ fibroblasts) | TLR3 expression above control (TLR3) |
| --- | --- | --- | --- |
| HNF1A: mRNA encoding only HNF1A | slightly above | slightly above | – |
| Poly I:C | – | – | did not activate TLR3 |
